Laboratory results reported in patent US20190358181A1, “METHODS FOR AUTISM SPECTRUM DISORDER PHARMACOTHERAPY” (priority 2017, published 2019).

System: 610 metabolites from 63 biochemical pathways
Test: Targeted broad-spectrum plasma metabolomic analysis (LC-MS/MS), paired pre-infusion vs post-infusion (2-days and 6-weeks)
Assay type: in vivo, human
Details: plasma, 2-days after infusion vs pre-infusion
Method: Targeted, broad-spectrum, plasma metabolomic analysis of 610 metabolites from 63 biochemical pathways was performed by high performance liquid chromatography and tandem mass spectrometry (LC-MS/MS) on the samples collected from patients in Example 1. Venous blood was collected between the hours of 8 am and 5 pm, at least 3 hours after the last meal, into lithium-heparin vacutainer tubes (BD #367884). Plasma was separated by centrifugation at 900 g×10 minutes at room temperature within one hour of collection. The resulting fresh lithium-heparin plasma was transferred to labeled 1.2 ml or 2.0 ml externally threaded cryotubes with a minimum headspace air gap for storage at −80° C. for analysis. Samples were analyzed on an AB SCIEX QTRAP 5500 triple quadrupole mass spectrometer equipped with a Turbo V electrospray ionization (ESI) source, Shimadzu LC-20A UHPLC system, and a PAL CTC autosampler. Typically, 90 μl of plasma was thawed on ice and transferred to a 1.7 ml Eppendorf tube. Five (5.0) μl of a cocktail containing 25-35 commercial stable isotope internal standards, and 5.0 μl of 57 stable isotope internal standards that were custom-synthesized in E. coli NCM3722, Caenorhabditis elegans N2, and Komagataella phaffii (ATCC 76273; formerly known as Pichia pastoris) by metabolic labeling with 13C-glucose and 13C-bicarbonate, were added, mixed, and incubated for 10 min at 20° C. to permit small molecules and vitamins in the internal standards to associate with plasma binding proteins. Macromolecules (protein, DNA, RNA, glycans, etc.) were precipitated by extraction with 4 volumes (400 μl) of cold (−20° C.), acetonitrile:methanol (50:50) (LCMS grade, Cat #LC015-2.5 and GC230-4, Burdick & Jackson, Honeywell), vortexed vigorously, and incubated on crushed ice for 10 min, then removed by centrifugation at 16,000 g×10 min at 4° C. The supernatants containing the extracted metabolites and internal standards in the resulting 40:40:20 solvent mix of acetonitrile:methanol:water were transferred to labeled cryotubes and stored at −80° C. for LCMS/MS analysis.
LC-MS/MS analysis was performed by scheduled multiple reaction monitoring (sMRM) under Analyst v1.6.2 software control in both negative and positive mode with rapid polarity switching (50 ms). Nitrogen was used for curtain gas (set to 30), collision gas (set to high), ion source gas 1 and 2 (set to 35). The source temperature was 500° C. Spray voltage was set to −4500 V in negative mode and 5500 V in positive mode. The values for Q1 and Q3 mass-to-charge ratios (m/z), declustering potential (DP), entrance potential (EP), collision energy (CE), and collision cell exit potential (CXP) were determined and optimized for each MRM for each metabolite. Ten microliters of extract was injected by PAL CTC autosampler via a 10 μl stainless steel loop into a 250 mm×2.0 mm, 4 μm polymer based NH2 HPLC column (Asahipak NH2P-40 2E, Showa Denko America, Inc., NY) held at 25° C. for chromatographic separation. The mobile phase was solvent A: 95% water with 20 mM (NH4)2CO3 (Sigma, Fluka Cat #74415-250G-F), 5% acetonitrile, and 38 mM NH4OH (Sigma, Fluka Cat #17837-100ML), final pH 9.75; solvent B: 100% acetonitrile. Separation was achieved using the following gradient: 0-3.5 min: 95% B, 3.6-8 min: 85% B, 8.1-13 min: 75% B, 13.5-35 min: 0% B, 36-46 min: 95% B, 46.1 min: end. The flow rate was 200 μl/min. Pump pressures ranged from 920-2600 psi over the course of the gradient. All the samples were kept at 4° C. during analysis. The chromatographic peaks were identified using MultiQuant (v3.0, Sciex), confirmed by manual inspection, and the peak areas integrated. […]

[1] = SAM, SAH, Methionine, Cysteine, Glutathione Metabolism
[2] = Taurine, Hypotaurine Metabolism
[3] = Tryptophan, Kynurenine, Serotonin, Melatonin Metabolism
[4] = Tyrosine and Phenylalanine Metabolism
[5] = Vitamin D (Calciferol) Metabolism

Cc1ccc(C(=O)Nc2ccc(S(=O)(=O)O)c3cc(S(=O)(=O)O)cc(S(=O)(=O)O)c23)cc1NC(=O)c1cccc(NC(=O)Nc2cccc(C(=O)Nc3cc(C(=O)Nc4ccc(S(=O)(=O)O)c5cc(S(=O)(=O)O)cc(S(=O)(=O)O)c45)ccc3C)c2)c1 [Suramin, suramin]
Z Score, Azelaic acid (Nitric Oxide, Superoxide, Peroxide Metabolism): −2.024
Linear Ratio, LysoPC(16:0) (Phospholipid Metabolism): 0.777
Linear Ratio, PA(16:0/16:1) (Phospholipid Metabolism): 0.793
Linear Ratio, PG(16:0/16:0) (Phospholipid Metabolism): 0.549
VIP Score, LysoPC(16:0) (Phospholipid Metabolism): 2.067
VIP Score, PA(16:0/16:1) (Phospholipid Metabolism): 1.998
VIP Score, PG(16:0/16:0) (Phospholipid Metabolism): 1.664
Z Abs, LysoPC(16:0) (Phospholipid Metabolism): 0.908
Z Abs, PA(16:0/16:1) (Phospholipid Metabolism): 0.813
Z Abs, PG(16:0/16:0) (Phospholipid Metabolism): 0.667
Z Score, LysoPC(16:0) (Phospholipid Metabolism): −0.908
Z Score, PA(16:0/16:1) (Phospholipid Metabolism): −0.813
Z Score, PG(16:0/16:0) (Phospholipid Metabolism): −0.667
Linear Ratio, 1-Methyladenine (Purine Metabolism): 1.631
Linear Ratio, AICAR (Purine Metabolism): 1.309
Linear Ratio, Allantoin (Purine Metabolism): 1.663
Linear Ratio, Cyclic adenosine monophosphate (Purine Metabolism): 0.855
Linear Ratio, Deoxyguanosine diphosphate (Purine Metabolism): 0.889
Linear Ratio, Guanosine (Purine Metabolism): 0.702
Linear Ratio, Hypoxanthine (Purine Metabolism): 0.745
Linear Ratio, Purine (Purine Metabolism): 1.203
Linear Ratio, Xanthosine (Purine Metabolism): 0.821
VIP Score, 1-Methyladenine (Purine Metabolism): 2.033
VIP Score, AICAR (Purine Metabolism): 1.787
VIP Score, Allantoin (Purine Metabolism): 2.195
VIP Score, Cyclic adenosine monophosphate (Purine Metabolism): 1.949
VIP Score, Deoxyguanosine diphosphate (Purine Metabolism): 2.264
VIP Score, Guanosine (Purine Metabolism): 1.519
VIP Score, Hypoxanthine (Purine Metabolism): 2.267
VIP Score, Purine (Purine Metabolism): 1.847
VIP Score, Xanthosine (Purine Metabolism): 1.764
Z Abs, 1-Methyladenine (Purine Metabolism): 1.337
Z Abs, AICAR (Purine Metabolism): 1.310
Z Abs, Allantoin (Purine Metabolism): 0.926
Z Abs, Cyclic adenosine monophosphate (Purine Metabolism): 0.681
Z Abs, Deoxyguanosine diphosphate (Purine Metabolism): 1.276
Z Abs, Guanosine (Purine Metabolism): 0.766
Z Abs, Hypoxanthine (Purine Metabolism): 1.000
Z Abs, Purine (Purine Metabolism): 1.137
Z Abs, Xanthosine (Purine Metabolism): 1.316
Z Score, 1-Methyladenine (Purine Metabolism): 1.337
Z Score, AICAR (Purine Metabolism): 1.310
Z Score, Allantoin (Purine Metabolism): 0.926
Z Score, Cyclic adenosine monophosphate (Purine Metabolism): −0.681
Z Score, Deoxyguanosine diphosphate (Purine Metabolism): −1.276
Z Score, Guanosine (Purine Metabolism): −0.766
Z Score, Hypoxanthine (Purine Metabolism): −1.000
Z Score, Purine (Purine Metabolism): 1.137
Z Score, Xanthosine (Purine Metabolism): −1.316
Linear Ratio, Cytosine (Pyrimidine Metabolism): 1.689
Linear Ratio, Orotic acid (Pyrimidine Metabolism): 0.670
VIP Score, Cytosine (Pyrimidine Metabolism): 2.556
VIP Score, Orotic acid (Pyrimidine Metabolism): 1.787
Z Abs, Cytosine (Pyrimidine Metabolism): 2.055
Z Abs, Orotic acid (Pyrimidine Metabolism): 0.612
Z Score, Cytosine (Pyrimidine Metabolism): 2.055
Z Score, Orotic acid (Pyrimidine Metabolism): −0.612
Linear Ratio, Cysteamine [1]: 1.107
Linear Ratio, Cysteine-S-sulfate [1]: 0.869
Linear Ratio, Methionine sulfoxide [1]: 1.331
VIP Score, Cysteamine [1]: 2.075
VIP Score, Cysteine-S-sulfate [1]: 1.682
VIP Score, Methionine sulfoxide [1]: 1.817
Z Abs, Cysteamine [1]: 1.398
Z Abs, Cysteine-S-sulfate [1]: 0.644
Z Abs, Methionine sulfoxide [1]: 1.738
Z Score, Cysteamine [1]: 1.398
Z Score, Cysteine-S-sulfate [1]: −0.644
Z Score, Methionine sulfoxide [1]: 1.738
Linear Ratio, SM(d18:1/20:0) (Sphingomyelin Metabolism): 0.712
Linear Ratio, SM(d18:1/20:1) (Sphingomyelin Metabolism): 0.745
VIP Score, SM(d18:1/20:0) (Sphingomyelin Metabolism): 1.576
VIP Score, SM(d18:1/20:1) (Sphingomyelin Metabolism): 2.033
Z Abs, SM(d18:1/20:0) (Sphingomyelin Metabolism): 0.770
Z Abs, SM(d18:1/20:1) (Sphingomyelin Metabolism): 1.250
Z Score, SM(d18:1/20:0) (Sphingomyelin Metabolism): −0.770
Z Score, SM(d18:1/20:1) (Sphingomyelin Metabolism): −1.250
Linear Ratio, Taurine [2]: 0.786
VIP Score, Taurine [2]: 2.042
Z Abs, Taurine [2]: 0.942
Z Score, Taurine [2]: −0.942
Linear Ratio, L-Kynurenine [3]: 1.099
VIP Score, L-Kynurenine [3]: 1.617
Z Abs, L-Kynurenine [3]: 0.625
Z Score, L-Kynurenine [3]: 0.625
Linear Ratio, L-Phenylalanine [4]: 1.164
VIP Score, L-Phenylalanine [4]: 1.839
Z Abs, L-Phenylalanine [4]: 0.957
Z Score, L-Phenylalanine [4]: 0.957
Linear Ratio, 1,25-Dihydroxyvitamin D3 [5]: 0.273
VIP Score, 1,25-Dihydroxyvitamin D3 [5]: 3.134
Z Abs, 1,25-Dihydroxyvitamin D3 [5]: 1.447
Z Score, 1,25-Dihydroxyvitamin D3 [5]: −1.447
